Source: article PMC8537897, “Design, Synthesis and Biological Evaluation of Aromatase Inhibitors Based on Sulfonates and Sulfonamides of Resveratrol” (Pharmaceuticals, 2021)
Like-named read-outs stand apart in the source and are kept apart here.

Assays:
human aromatase = biological target: T1, human aromatase (Homo sapiens, UniProt P11511); test: Aromatase inhibition, fluorimetric assay kit (Aromatase-CYP19A Inhibitor Screening kit, BioVision); format: biochemical
T1 construct: purchased BioVision, Milpitas, CA, USA
T1 sequence (P11511 1-503): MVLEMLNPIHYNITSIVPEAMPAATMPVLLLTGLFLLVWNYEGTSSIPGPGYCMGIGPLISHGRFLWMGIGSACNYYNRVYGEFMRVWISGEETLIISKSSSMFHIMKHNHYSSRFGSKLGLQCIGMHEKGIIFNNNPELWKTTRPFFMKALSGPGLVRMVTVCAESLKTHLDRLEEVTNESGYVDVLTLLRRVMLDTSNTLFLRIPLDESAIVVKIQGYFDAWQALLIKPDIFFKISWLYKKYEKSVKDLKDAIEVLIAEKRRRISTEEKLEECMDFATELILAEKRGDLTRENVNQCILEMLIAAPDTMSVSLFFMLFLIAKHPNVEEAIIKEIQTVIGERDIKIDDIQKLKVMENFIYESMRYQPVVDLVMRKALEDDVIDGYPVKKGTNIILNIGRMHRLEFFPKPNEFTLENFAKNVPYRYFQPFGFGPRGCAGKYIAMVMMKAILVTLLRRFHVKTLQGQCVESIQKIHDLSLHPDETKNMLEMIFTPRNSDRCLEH
Protocol: The activity was measured each minute for 60 min and the value obtained for each compound after 10 min was chosen to calculate the percentage of the aromatase inhibition.
The aromatase inhibitory activity was determined using a commercial fluorimetric assay kit (Aromatase-CYP19A Inhibitor Screening kit, BioVision, Milpitas, CA, USA), as reported elsewhere. The assay utilizes a fluorogenic aromatase substrate that is converted into a highly fluorescent metabolite detected in the visible range (Ex/Em 488/527 nm). […] During the incubation, the Aromatase Substrate/NADP+ mixture was prepared, and the reaction was started by adding 30 µL of this solution to each well (aside from the background control), reaching a final reaction volume of 100 µL/well. The fluorescence emission (527 nm) was measured immediately (within 1 min) by means of a fluorometer equipped with a 488 nm filter (GloMax®-Multi Detection System, Promega, Madison, WI, USA) and afterwards monitored for 60 min. […] The assay was performed in the same experimental conditions used for the initial screening of compounds. Dose–response curves were fitted with GraphPad Prism 5.0 (GraphPad Software, San Diego, CA, USA).

[1] = tested on: MCF7 breast cancer cell line; test: Cell metabolic activity / viability (MTT assay) on MCF7; format: cell-based, human; details: for IC50: MTT, tested 0 to 500 µM;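 for all read-outs here: MTT optical density read-out in human MCF7 cells, normalised to DMSO vehicle-treated cells as 100%, with IC50 derived from fitted concentration–response curves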
Protocol: Cell metabolic activity of HFF-1 and MCF7 cells was assessed by MTT (3-(4,5-Dimethylthiazol-2-yl)-2,5-Diphenyltetrazolium Bromide) test (Sigma Aldrich, Milan, Italy). […] After the established exposure times, cells were incubated with MTT (0.5 mg/mL) and the optical density was measured as reported elsewhere [63]. Results were expressed as the percentage of cells in the presence of vehicle (DMSO) set as 100% and each experiment was performed in triplicate (n = 3). Concentration–response curves and IC50 were fitted and calculated with GraphPad Prism 5.0 (GraphPad Software, San Diego, CA, USA).

[2] = tested on: normal human skin fibroblast (HFF-1); test: Cell metabolic activity (MTT assay) on HFF-1; format: cell-based
Protocol: The compounds were then biologically characterized in terms of cytotoxicity occurrence (LDH released) on MCF7 cells. […] After 24 h of treatment, a dose-dependent decrease in cell metabolic activity can be registered for all the compounds with respect to DMSO alone. […] Similar results were obtained also after 72 h of treatment.
Human skin fibroblasts (HFF-1, CVCL_3285) and human breast cancer MCF7 (HTB-22™, CVCL_0031) were purchased from ATCC and maintained in Dulbecco’s modified Eagle’s medium (DMEM) high glucose (EuroClone, Milan, Italy) supplemented with 10% of fetal bovine serum (FBS) and 1% of penicillin/streptomycin (Gibco—Thermo Fisher Scientific, MD, USA).
Cell metabolic activity of HFF-1 and MCF7 cells was assessed by MTT (3-(4,5-Dimethylthiazol-2-yl)-2,5-Diphenyltetrazolium Bromide) test (Sigma Aldrich, Milan, Italy). […] After the established exposure times, cells were incubated with MTT (0.5 mg/mL) and the optical density was measured as reported elsewhere. Results were expressed as the percentage of cells in the presence of vehicle (DMSO) set as 100% and each experiment was performed in triplicate (n = 3). Concentration–response curves and IC50 were fitted and calculated with GraphPad Prism 5.0 (GraphPad Software, San Diego, CA, USA).

MCF7 cells [3] = test: Cytotoxicity test (lactate dehydrogenase release); format: cell-based, human; details: 24 h
Protocol: To assess whether the decrease in metabolic activity is a consequence of cytotoxic occurrence in the presence of compounds 1b, 1c, and 1j, lactate dehydrogenase (LDH) released from MCF7 was measured in response to loading concentrations of 0–250 µM after a 24 h exposure. […] It is, therefore, plausible to assume that all tested compounds exert their anti-proliferative effect on MCF7 cells through cytotoxic induction and 1c is the most promising compound, being active already at lower doses.
MCF7 cells were seeded and stimulated as previously described for the MTT test. After the exposure time, cell supernatants were collected, centrifuged at 450× g for 4 min, and stored on ice. In order to quantify the cytotoxicity of loading concentrations of compounds 1b, 1c, and 1j (0–250 µM), the CytoTox 96® Non-Radioactive Cytotoxicity Assay (Promega Corporation, Madison, WI, USA) was performed as previously reported. The results were normalized on MTT absorbances and expressed as fold increases on the LDH released by cultures in the presence of vehicle (DMSO) set as 1.

MCF7 cells [4] = test: Hematoxylin/eosin staining; format: cell-based, human; details: MCF7, 50 µM, 72 h, vs DMSO
Protocol: The effectiveness on MCF7 cells of compound 1c over the other compounds is confirmed by the hematoxylin/eosin staining (H&E) performed after 72 h of treatment at 50 µM. […] At a higher magnification (panels C and D), MCF7 cells show chromatin condensation (green arrows), as a typical sign of the initiation of cell death.
MCF7 cells were seeded (7 × 10^4 cells/well) in well glasses (Millicell® EZ slide, Merck Millipore, Burlington, MA, USA). After 24 h from seeding, cells were exposed to compound 1c at 50 µM for 72 h. Next, supernatants were removed, and cells were washed twice with PBS with calcium and magnesium (Euro Clone, Milan, Italy). MCF7 cells were fixed in the presence of p-formaldehyde 4% and stained with hematoxylin/eosin as reported elsewhere.

Cc1ccc(S(=O)(=O)Oc2ccc(/C=C/c3ccccc3)cc2)cc1[N+](=O)[O-] [1c, 4-[(E)-2-Phenylvinyl]phenyl 4-methyl-3-nitrobenzenesulfonate]
inhibition at 1 µM (human aromatase): 91% | Potency in inhibiting aromatase relative to RSV (human aromatase; compared to RSV): twentyfold more potent than RSV | IC50 (human aromatase; tested at concentrations from 0.01 to 100 μM, mean of triplicate determinations): 3.17 µM | IC50 ([1]; Homo sapiens, MCF7, 24 h, 24 h, read-out: MCF7 Cells IC50 24 h): 29.2 µM | IC50 ([1]; Homo sapiens, MCF7, 72 h, 72 h, read-out: MCF7 Cells IC50 72 h): 40 µM | Viability (% of control) - 24 h ([1]; MCF7, 10 µM, 24 h): 85.23 ± 1.29 % of control | Viability (% of control) - 72 h ([1]; MCF7, 10 µM, 72 h): 96.62 ± 6.99 % of control | Viability (% of control) - 24 h ([1]; MCF7, 25 µM, 24 h): 73.08 ± 2.67 % of control | Viability (% of control) - 72 h ([1]; MCF7, 25 µM, 72 h): 91.88 ± 5.31 % of control | Viability (% of control) - 24 h ([1]; MCF7, 50 µM, 24 h): 37.39 ± 0.66 % of control | Metabolically active cells ([1]; MCF7, 50 µM, 24 h, DMSO alone = 100%): around 60% | Viability (% of control) - 72 h ([1]; MCF7, 50 µM, 72 h): 46.19 ± 1.67 % of control | Viability (% of control) - 24 h ([1]; MCF7, 100 µM, 24 h): 36.17 ± 1.56 % of control | Viability (% of control) - 72 h ([1]; MCF7, 100 µM, 72 h): 35.22 ± 2.21 % of control | Viability (% of control) - 24 h ([1]; MCF7, 250 µM, 24 h): 38.64 ± 1.23 % of control | Viability (% of control) - 72 h ([1]; MCF7, 250 µM, 72 h): 38.30 ± 4.07 % of control | Viability (% of control) - 24 h ([1]; MCF7, 500 µM, 24 h): 34.30 ± 1.43 % of control | Viability (% of control) - 72 h ([1]; MCF7, 500 µM, 72 h): 15.08 ± 0.67 % of control | IC50 ([1]; 24 h, read-out: MCF7 Cells IC50 24 h): 29.2 ± 1.9 µM | IC50 ([1]; 72 h, read-out: MCF7 Cells IC50 72 h): 39.9 ± 2.1 µM | HFF-1 viability (in words) ([2]; 0–250 µM, 24 and 72 h): significant reduction in viability only at the maximum concentration and after 72 h of treatment | Selectivity index (SI) over normal fibroblasts ([2]; HFF-1 vs MCF7, after 24 h): 1.82 | LDH release, dose dependence (in words) (MCF7 cells [3]; MCF7, 0–250 µM): raises only at the highest concentration administered (250 µM) | LDH released, fold vs vehicle (DMSO) set as 1 (MCF7 cells [3]; MCF7, 50 µM): three folds more | LDH released, fold vs vehicle (DMSO) set as 1 (MCF7 cells [3]; MCF7, 250 µM): almost five folds more | Cell number by H&E staining (in words) (MCF7 cells [4]): cell number is dramatically decreased
